{
  "source": "patent US20250177473A1",
  "about": "“PEPTIDE REGULATORS OF METABOLISM” (Metabico, Inc., priority 2022, published 2025)",
  "format_in_all_cases": "in vivo, mouse",
  "key": {"[1]": {"system": "C57BL/6 mice on a high-fat diet", "assay": "Glucose tolerance test in mice on high-fat diet (HFD), acute administration", "details": "Metformin 250 mg/kg single p.o.", "description": "(§1) A standard laboratory rodent pellet SNIFF RI/M-H V1534-30 (58% carbohydrates, 9% fat, 33% protein, 306 kcal/100 g) was given ad libitum to the control animals. For HFD groups, the high-fat feed was used. For 1 kg of feed, 610 g of ground SNIFF feed and 360 g of melted pork lard were taken, water (˜250 ml, 60-70° C.), 10 g of sodium chloride, 30 g of sodium glutamate were added. The mixture was brewed to a dough consistency, and food granules were formed. Then the granules were dried at 60-70° C. for 10-12 hours. The finished food for consumption was transferred to the animal-keeping area. The prepared food was stored at 4° C. for no more than 7 days. The approximate energy value of the HFD feed was 516 kcal/100 g (45% fat, 35% carbohydrates, 20% protein).\n(§2) The metabolic syndrome was modeled by keeping animals on a HFD for 16 weeks. The control group was kept on a standard diet (STD) during this period. Animals had free access to feed and water located in the cage lid.\nAt stage 1 of the study, to replicate the metabolic syndrome, 25 mice were kept on a STD (group 1), 140 mice—on a HFD (groups 2-5). The animals' body weight was monitored weekly. By the end of the 16th week, mice with the maximum gain were selected among the animals kept on a HFD, and four groups of 25 animals were formed.\nOn the day of the experiment, animals from groups 3-5 were injected with the tested substances: one half of the group (12 or 13 animals) 2 hours before the experiment and the other half—12 hours. Group 1 and 2 (STD control and HFD control) were injected with saline (Table 5).\n(§3) The administration volume was 10 ml/kg for drugs administered i.p., 6 μl/animal for i.n. administration and 5 ml/kg for drugs administered p.o.\nThe animals were deprived of food for 12 hours before the glucose tolerance test and euthanasia. Animals had free access to water.\nThe animals were deprived of food for 12 hours before the test. Baseline glucose level was measured at the end of fasting (0 min time point) in the blood drop taken from the tip of the tail by incision (with a needle) of the tail vein. The test substances were administered according to the treatment group. Half of the animals received drug injections 2 hours, and the other half—12 hours before the test. The glucose concentration in the blood was determined 15, 30, 60, 120 minutes after i.p. 40% glucose solution administration in a dose of […] with Satellite Express (Elta, Russia) test system."}, "[2]": {"system": "C57BL/6 mice on a high-fat diet", "assay": "Chronic 28-day administration in HFD mice: bodyweight, water and feed consumption", "details": "for Weekly food consumption / Weekly water consumption: Metformin 250 mg/kg p.o. daily", "description": "as §1, §2\n(§4) Groups of 10 animals were formed from the existing groups from Stage 2, with similar mean body weight (Table 6). The animals' bodyweight was monitored three times a week, water, and feed consumption—weekly. After the last treatment, the animals were euthanized for necropsy and their blood collected. The internal organs were examined for the presence of macro damage and weighed. The adipose tissue surrounding the epididymis was evaluated as a marker of obesity in animals. For histological examination, samples of adipose tissue and liver tissue were fixed in 10% formalin solution for further histological analysis.\nas §3\nThe animals were weighed weekly on weeks 1-16 of the experiment (1-120 days of the study), during the administration of the tested substances (121-148 days)—three times a week. The bodyweight of a hungry animal immediately before necropsy was taken to calculate the percentage of organ weight to body weight.\nEach animal's food and water consumption was evaluated weekly by weighing the grid with food or a bottle of water before and after 24 hours."}, "[3]": {"system": "C57BL/6 mice on a high-fat diet", "assay": "Blood serum glucose, HOMA-IR and TNF-α after chronic administration in HFD mice", "details": "metformin 250 mg/kg p.o.", "description": "as §4\nAt the end of the study, the animals were euthanized. […]\nBlood serum was analyzed for glucose concentration using the Randox GB reagent kit on an automatic biochemical analyzer Sapphire-400 (Tokyo Boeki LTD, Japan), following the manufacturer's instructions.\nInsulin concentration in blood serum samples was measured by enzyme immunoassay using a standard commercial kit, following the manufacturer's instructions. […] Based on the obtained data on the concentration of insulin and glucose measured in animals before necropsy, the derived parameter of insulin resistance HOMA-IR was calculated using the formula: […]\nThe concentration of proinflammatory cytokine TNFa and IL1 was measured in blood serum samples by ELISA using standard commercial kits, following the manufacturer's instructions. […]"}, "[4]": {"system": "C57BL/6 mice on a high-fat diet", "assay": "Visceral fat weight and adipocyte histology after chronic administration in HFD mice", "details": "four weeks", "description": "as §4\nAfter necropsy, the following internal organs were weighed: adrenal glands, kidneys, liver, pancreas, heart, spleen, and testicles.\nDuring necropsy, the body's external state, internal surfaces, the cranial cavity, chest, abdominal and pelvic cavities with organs and tissues located in them, the neck with organs and tissues, the skeleton, and the musculoskeletal system were examined. The organs and tissues were fixed in 10% formalin. […]\nMicroscopic analysis was performed using a DMLA Leica transmitted light microscope (Germany), a Photometrics Cool SNAP cf video camera (USA), and Mekos software (Russia). […] One hundred adipocytes were measured on sections of the visceral fat samples in 15-20 random fields of view."}},
  "data": [
    {"smiles": "CN(C)C(=N)N=C(N)N", "note": "[Metformin]", "values": [
      {"measurement": "AUC of glucose in GTT", "setting": "[1]; 2 h post-treatment", "result": "1808 ± 131", "unit": "mmol/L/min"},
      {"measurement": "glucose concentration in GTT", "setting": "[1]; 2 h post-treatment, 0 min (basal)", "result": "7.2 ± 0.374", "unit": "mmol/L"},
      {"measurement": "glucose concentration in GTT", "setting": "[1]; 2 h post-treatment, 60 min after glucose", "result": "15.55 ± 1.46", "unit": "mmol/L"},
      {"measurement": "glucose concentration in GTT", "setting": "[1]; 2 h post-treatment, 120 min after glucose", "result": "10.08 ± 0.875", "unit": "mmol/L"},
      {"measurement": "AUC of glucose in GTT", "setting": "[1]; 12 h post-treatment", "result": "1857 ± 149", "unit": "mmol/L/min"},
      {"measurement": "glucose concentration in GTT", "setting": "[1]; 12 h post-treatment, 0 min", "result": "7.0 ± 0.7", "unit": "mmol/L"},
      {"measurement": "glucose concentration in GTT", "setting": "[1]; 12 h post-treatment, 60 min after glucose", "result": "15.7 ± 1.8", "unit": "mmol/L"},
      {"measurement": "glucose concentration in GTT", "setting": "[1]; 12 h post-treatment, 120 min after glucose", "result": "11.2 ± 1.4", "unit": "mmol/L"},
      {"measurement": "Bodyweight during the period the test substance administration", "setting": "[2]; Metformin 250 mg/kg p.o. daily from day 122, day 122", "result": "34.3 ± 0.7", "unit": "grams"},
      {"measurement": "Bodyweight during the period the test substance administration", "setting": "[2]; Metformin 250 mg/kg p.o. daily from day 122, day 124", "result": "33.9 ± 0.7", "unit": "grams"},
      {"measurement": "Bodyweight during the period the test substance administration", "setting": "[2]; Metformin 250 mg/kg p.o. daily from day 122, day 126", "result": "33.4 ± 0.8", "unit": "grams"},
      {"measurement": "Bodyweight during the period the test substance administration", "setting": "[2]; Metformin 250 mg/kg p.o. daily from day 122, day 129", "result": "32.9 ± 0.7", "unit": "grams"},
      {"measurement": "Bodyweight during the period the test substance administration", "setting": "[2]; Metformin 250 mg/kg p.o. daily from day 122, day 131", "result": "33.1 ± 0.7", "unit": "grams"},
      {"measurement": "Bodyweight during the period the test substance administration", "setting": "[2]; Metformin 250 mg/kg p.o. daily from day 122, day 133", "result": "33.1 ± 0.8", "unit": "grams"},
      {"measurement": "Bodyweight during the period the test substance administration", "setting": "[2]; Metformin 250 mg/kg p.o. daily from day 122, day 136", "result": "32.4 ± 1.1", "unit": "grams"},
      {"measurement": "Bodyweight during the period the test substance administration", "setting": "[2]; Metformin 250 mg/kg p.o. daily from day 122, day 138", "result": "32.2 ± 1.1", "unit": "grams"},
      {"measurement": "Bodyweight during the period the test substance administration", "setting": "[2]; Metformin 250 mg/kg p.o. daily from day 122, day 141", "result": "32.9 ± 0.9", "unit": "grams"},
      {"measurement": "Bodyweight during the period the test substance administration", "setting": "[2]; Metformin 250 mg/kg p.o. daily from day 122, day 144", "result": "33.2 ± 1.0", "unit": "grams"},
      {"measurement": "Bodyweight during the period the test substance administration", "setting": "[2]; Metformin 250 mg/kg p.o. daily from day 122, day 147", "result": "33.5 ± 1.0", "unit": "grams"},
      {"measurement": "Weekly food consumption", "setting": "[2]; Week 1", "result": "458.4 ± 55.4", "unit": "kcal/kg/day"},
      {"measurement": "Weekly water consumption", "setting": "[2]; Week 1", "result": "0.1095 ± 0.0109", "unit": "mL/min/kg"},
      {"measurement": "Weekly food consumption", "setting": "[2]; Week 2", "result": "758.4 ± 51.4", "unit": "kcal/kg/day"},
      {"measurement": "Weekly water consumption", "setting": "[2]; Week 2", "result": "0.1199 ± 0.00944", "unit": "mL/min/kg"},
      {"measurement": "Weekly food consumption", "setting": "[2]; Week 3", "result": "567.6 ± 21.3", "unit": "kcal/kg/day"},
      {"measurement": "Weekly water consumption", "setting": "[2]; Week 3", "result": "0.1505 ± 0.0169", "unit": "mL/min/kg"},
      {"measurement": "Weekly food consumption", "setting": "[2]; Week 4", "result": "709.4 ± 22.7", "unit": "kcal/kg/day"},
      {"measurement": "Weekly water consumption", "setting": "[2]; Week 4", "result": "0.182 ± 0.0183", "unit": "mL/min/kg"},
      {"measurement": "decrease in weight compared to values before substance administration", "setting": "[2]; Metformin p.o., chronic 4-week", "result": 7.6, "unit": "%"},
      {"measurement": "Animal body weight before the administration of the tested substances", "setting": "[2]; day 112, baseline, group 5 Metformin p.o.", "result": "36.94 ± 0.954", "unit": "grams"},
      {"measurement": "loss of excess body weight (normalized to HFD control)", "setting": "[2]; metformin chronic administration, compared with EPSI i.n.", "result": "comparable"},
      {"measurement": "glucose concentration in the blood vs HFD control group", "setting": "[3]; 4 weeks, EPSI 5 mg/kg i.p. and i.n.", "result": "decrease"},
      {"measurement": "TNF-α concentration in blood serum vs HFD control", "setting": "[3]; four weeks, EPSI 5 mg/kg i.n.", "result": "reduced"},
      {"measurement": "decrease in average linear size of visceral fat adipocytes compared to HFD control", "setting": "[4]; Metformin 250 mg/kg p.o.", "result": 31, "unit": "%"},
      {"measurement": "visceral fat (adipose tissue surrounding the epididymis) weight", "setting": "[4]; EPSI 5 mg/kg i.p. and i.n., metformin 250 mg/kg p.o., vs HFD control", "result": "statistically significant decrease"}
    ]}
  ]
}
